Where two headings read alike, the source gives them in different places.
Experiments:
[1] = system: STMN2 (WT STMN2-NLuc SH-SY5Y cells); experiment: STMN2 nanoluciferase assay in WT SH-SY5Y cells (Table A: WT TDP-32; Table B: WT HD Luciferase); type: cell-based, human; conditions: WT cell line
Protocol: (§1) Neuroblastoma cells (ATCC) were cultured in DMEM/F12 (Gibco) supplemented with 10% fetal-bovine serum (Omega) and 1% penicillin-streptomycin (Gibco) at 37 °C with 5% CO2. For knockdown experiments, cells were transfected with SMARTpool ON-TARGETplus siRNA or control siRNA pool (D001810-10) (GE Dharmacon) at a final concentration of 50 nM, for 96 h in two doses (0, 24 h), after complexing with Lipofectamin RNAiMAX (Invitrogen) in Opti-MEM (Gibco) for 10 min.
(§2) WT and TDP-mut (N352S) SH-SY5Y cells were edited using CRISPR-Cas9 to express Nanoluciferase at the C-terminus of both endogenous STMN2 alleles. A single guided RNA targeting STMN2 C-terminus was designed (Benchling webtool) and cloned into pSpCas9-2A-green fluorescent protein (GFP) plasmid (px458-Addgene) using the BbsI restriction site. The sequence for guided RNA targeting STMN2 was: […]. For the repair template, overlapping fragments of 800 bp STMN2 homology arms flanking Nanoluciferase (NLuc, Promega) were generated and ligated into pUC57 backbone. A 42 bp GS-linker was also included 5′ to NLuc to prevent steric hindrance of the reporter to the final STMN2 exon. Fragments were ligated using Gibson Assembly and nucleofected simultaneously with pSpCas9-2A-GFP-gRNA plasmid using the Amaxa Nucleofector (assay A-023). Forty-eight hours following electroporation, cells were collected, and GFP-positive cells sorted and single-cell seeded into 96-well plates using the SH800S Sony cell sorter. Individual clones were expanded and DNA was extracted for PCR amplification of the STMN2 Ex5 genomic locus using primers within NLuc and outside the STMN2 5′ homology arm to confirm presence of the insert. The entire STMN2 coding region and all exon-intron junctions (>500-bp length of each intronic region) were then sequenced to verify the absence of any additional DNA alteration. qPCR analysis was performed with a wild-type isogenic SH-SY5Y cell line that had undergone the mutagenesis attempt but not acquired the insertion mutation during the original screening process.
(§3) TDP-mut STMN2-NLuc SH-SY5Y cells were used in small-molecule screening at ICCB-Longwood. 3000 cells/well were plated in white 384-well plates using a 50 ul sample volume. 24 hours after plating, compounds were added using 100 nl pin transfer. 24 hours later, 25 ul NLuc assay was added to each well according to manufacturer instructions (Promega, Cat #). Plates were shaken for 1 min prior to luminescence readings using EnVision2 machine. DMSO-only and WT STMN2-NLuc cells were included as negative and positive controls respectively on each plate, producing an average Z′score of ~0.7 across the screen. Each library plate was conducted in duplicate, and Z-scores calculated for each compound. For subsequent validation experiments, cell numbers in each well were quantified by hoescht staining at 1 μg/ml for 15 mins at 37C in black, clear bottom plates, prior to imaging at 4× using automated microscopy (ImageXpressMicro). Nuclei were then counted using a custom algorithm, and luciferase assay run as above. Luminescence results were then normalised against cell counts as RLU/cell.
(§4) Each compound was tested in triplicate in log doses ranging 0.01 μM−10 μM. The values are represented in luminescence normalized to the number of cells in the well, wherein darker grey correlates to higher RLU per cell and higher STMN2 protein expression.

[2] = system: STMN2 (TDP-mut (N352S) STMN2-NLuc SH-SY5Y cells); experiment: STMN2 nanoluciferase assay in TDP-43 mutant SH-SY5Y cells (Table A: mut TDP-43; Table B: mut HD Luciferase); type: cell-based, human; conditions: mutant TDP-43 cell line
Protocol: as §1, §2, §3, §4

[3] = Homo sapiens, SH-SY5Y, Table B, Emax
[4] = Homo sapiens, SH-SY5Y, Table B, read-out: EC50, WT HD Luciferase
[5] = Homo sapiens, SH-SY5Y, Table B, read-out: EC50, mut HD Luciferase
[6] = Homo sapiens, SH-SY5Y, Table A, read-out: EC50, WT TDP-32
[7] = Homo sapiens, SH-SY5Y, Table A, read-out: EC50, mut TDP-43

SMILES	HD Luciferase (WT, Emax) ([1]; Table B, Emax)	EC50 ([1]; Table B, read-out: EC50, WT HD Luciferase) [nM]	EC50 ([2]; Table B, read-out: EC50, mut HD Luciferase) [nM]	maximal fold induction [1, 3]	EC50 [1, 4] [nM]	EC50 [2, 5] [nM]	EC50 [1, 6] [nM]	EC50 [2, 7] [nM]	HD Luciferase (mut, Emax) ([2]; Table B)
Cc1cc2c(-c3ccc(F)cc3)c(/C=C/[C@@H](O)C[C@@H](O)CC(=O)O)c(C3CC3)nc2s1 [Example I-5c, (3R,5S,E)-7-(6-cyclopropyl-4-(4-fluorophenyl)-2-methylthieno[2,3-b]pyridin-5-yl)-3,5-dihydroxyhept-6-enoic acid]	** (means≥1.25 and <1.5)	100 to 500	100 to 500						
O=C(O)C[C@H](O)C[C@H](O)/C=C/c1c(C2CC2)nc2c(C3CC3)csc2c1-c1ccc(F)cc1 [Example I-25, (3R,5S,E)-7-(3,5-dicyclopropyl-7-(4-fluorophenyl)thieno[3,2-b]pyridin-6-yl)-3,5-dihydroxyhept-6-enoic acid]				1.5 to 1.75	10 to 50	10 to 50			
Cc1cc2nc(C3CC3)c(/C=C/[C@@H](O)C[C@@H](O)CC(=O)O)c(-c3ccc(F)cc3)c2s1 [Example I-6, (3R,5S,E)-7-(5-cyclopropyl-7-(4-fluorophenyl)-2-methylthieno[3,2-b]pyridin-6-yl)-3,5-dihydroxyhept-6-enoic acid]				1.25 to 1.5	10 to 50	10 to 50			
COCc1c(C2CC2)nc(C2CC2)c(/C=C/[C@@H](O)C[C@@H](O)CC(=O)O)c1-c1cc(Cl)ccc1F [II-20, (3R,5S,E)-7-(4-(5-chloro-2-fluorophenyl)-2,6-dicyclopropyl-5-(methoxymethyl)pyridin-3-yl)-3,5-dihydroxyhept-6-enoic acid]				1.25 to 1.5	10 to 50	10 to 50			
COCc1c(C2CC2)nc(C2CC2)c(/C=C/[C@@H](O)C[C@@H](O)CC(=O)O)c1-c1c(C)cc(F)cc1F [II-17, (3R,5S,E)-7-(2,6-dicyclopropyl-4-(2,4-difluoro-6-methylphenyl)-5-(methoxymethyl)pyridin-3-yl)-3,5-dihydroxyhept-6-enoic acid]				1.5 to 1.75	≤ 10	≤ 10			
COCc1c(C2CC2)nc(C2CC2)c(/C=C/[C@@H](O)C[C@@H](O)CC(=O)O)c1-c1ccccc1Cl [II-25, (3R,5S,E)-7-(4-(2-chlorophenyl)-2,6-dicyclopropyl-5-(methoxymethyl)pyridin-3-yl)-3,5-dihydroxyhept-6-enoic acid]					10 to 50	10 to 50			
COCc1c(C2CC2)nc(C2CC2)c(/C=C/[C@@H](O)C[C@@H](O)CC(=O)O)c1-c1ccc(Cl)cc1F [II-19, (3R,5S,E)-7-(4-(4-chloro-2-fluorophenyl)-2,6-dicyclopropyl-5-(methoxymethyl)pyridin-3-yl)-3,5-dihydroxyhept-6-enoic acid]					10 to 50	10 to 50			
COCc1c(C23CC(C2)C3)nc(C2CC2)c(/C=C/[C@@H](O)C[C@@H](O)CC(=O)O)c1-c1ccc(F)cc1 [II-2, (3R,5S,E)-7-(6-(bicyclo[1.1.1]pentan-1-yl)-2-cyclopropyl-4-(4-fluorophenyl)-5-(methoxymethyl)pyridin-3-yl)-3,5-dihydroxyhept-6-enoic acid]					≤ 10	≤ 10	100 to 500	≤ 100	
O=C(O)C[C@H](O)C[C@H](O)/C=C/c1c(C2CC2)cc2scnc2c1-c1ccc(F)cc1 [Example I-9, (3R,5S,E)-7-(6-cyclopropyl-4-(4-fluorophenyl)benzo[d]thiazol-5-yl)-3,5-dihydroxyhept-6-enoic acid]				1 to 1.25	≥ 500	≥ 500	≥ 10000	5000 to 10000	* (means≥1 and <1.25)
Cc1cc(F)ccc1-c1cc(C2CC2)nc(C2CC2)c1/C=C/[C@@H](O)C[C@@H](O)CC(=O)O [II-12, (3R,5S,E)-7-(2,6-dicyclopropyl-4-(4-fluoro-2-methylphenyl)pyridin-3-yl)-3,5-dihydroxyhept-6-enoic acid]					≤ 10	≤ 10			
COCc1c(C2CCC2)nc(C2CC2)c(/C=C/[C@@H](O)C[C@@H](O)CC(=O)O)c1-c1ccc(F)cc1Cl [II-4, (3R,5S,E)-7-(4-(2-chloro-4-fluorophenyl)-6-cyclobutyl-2-cyclopropyl-5-(methoxymethyl)pyridin-3-yl)-3,5-dihydroxyhept-6-enoic acid]					≤ 10	≤ 10	≤ 100	≤ 100	
COCc1c(C2CC2)nc(C2CC2)c(/C=C/[C@@H](O)C[C@@H](O)CC(=O)O)c1-c1cc(F)ccc1C [II-24, (3R,5S,E)-7-(2,6-dicyclopropyl-4-(5-fluoro-2-methylphenyl)-5-(methoxymethyl)pyridin-3-yl)-3,5-dihydroxyhept-6-enoic acid]				1.25 to 1.5	10 to 50	10 to 50			** (means≥1.25 and <1.5)
O=C(O)C[C@H](O)C[C@H](O)/C=C/c1c(C2CC2)cc2ncsc2c1-c1ccc(F)cc1 [Example I-11, (3R,5S,E)-7-(5-cyclopropyl-7-(4-fluorophenyl)benzo[d]thiazol-6-yl)-3,5-dihydroxyhept-6-enoic acid]					10 to 50	10 to 50			** (means≥1.25 and <1.5)
COCc1c(C2CC2)nc(C2CC2)c(/C=C/[C@@H](O)C[C@@H](O)CC(=O)O)c1-c1c(F)cccc1Cl [II-22, (3R,5S,E)-7-(4-(2-chloro-6-fluorophenyl)-2,6-dicyclopropyl-5-(methoxymethyl)pyridin-3-yl)-3,5-dihydroxyhept-6-enoic acid]					10 to 50	10 to 50			
COCc1c(C(C)C)nc(C(C)C)c(/C=C/[C@@H](O)C[C@@H](O)CC(=O)O)c1-c1ccc(F)cc1 [Cerivastatin, cerivastatin, reference compound]							100 to 500	≤ 100	
COCc1c(C2CC2)nc(C2CC2)c(/C=C/[C@@H](O)C[C@@H](O)CC(=O)O)c1-c1cc(F)ccc1Cl [II-13, (3R,5S,E)-7-(4-(2-chloro-5-fluorophenyl)-2,6-dicyclopropyl-5-(methoxymethyl)pyridin-3-yl)-3,5-dihydroxyhept-6-enoic acid]					10 to 50	10 to 50			
Cc1nc2c(-c3ccc(F)cc3)c(/C=C/[C@@H](O)C[C@@H](O)CC(=O)O)c(C3CC3)nc2s1 [Example I-3, (3R,5S,E)-7-(5-cyclopropyl-7-(4-fluorophenyl)-2-methylthiazolo[5,4-b]pyridin-6-yl)-3,5-dihydroxyhept-6-enoic acid]				1 to 1.25	≥ 500	≥ 500	≥ 10000	5000 to 10000	* (means≥1 and <1.25)
Cc1csc2c(-c3ccc(F)cc3Cl)c(/C=C/[C@@H](O)C[C@@H](O)CC(=O)O)c(C3CC3)nc12 [Example I-15, (3R,5S,E)-7-(7-(2-chloro-4-fluorophenyl)-5-cyclopropyl-3-methylthieno[3,2-b]pyridin-6-yl)-3,5-dihydroxyhept-6-enoic acid]					10 to 50	10 to 50			
Cc1nc2c(-c3ccc(F)cc3)c(/C=C/[C@@H](O)C[C@@H](O)CC(=O)O)c(C3CC3)cc2s1 [Example I-7, (3R,5S,E)-7-(6-cyclopropyl-4-(4-fluorophenyl)-2-methylbenzo[d]thiazol-5-yl)-3,5-dihydroxyhept-6-enoic acid]				1 to 1.25	100 to 500	100 to 500	1000 to 5000	1000 to 5000	** (means≥1.25 and <1.5)
